First: CCCCCc1c(/C=C/C(=O)O)n(C)c2cc(OC)ccc12
Second: COc1ccc(Oc2ccc(/C=C/C(=O)O)cc2)cc1
The melting point of the first is lower: 157 to 158 °C for the first, 165 to 167 °C for the second.

Going from COc1ccc(/C=C/c2nc3c(c(=O)n(C)c(=O)n3C)n2C)c(OC)c1 to CCOC(=O)c1cn(-c2ccc(F)cn2)c2nc(Cl)c(F)cc2c1=O, the melting point falls from 242 °C to 230 °C.

First: Cn1c(-c2ccc(Cl)c(S(N)(=O)=O)c2)csc1=Nc1ccc(O)cc1
Second: NS(=O)(=O)c1ccc(-n2nc(C=O)cc2-c2ccccc2)cc1
The melting point of the first is higher: 274 °C for the first, 177 to 180 °C for the second.

First: N#Cc1ccc(N2CC=C(N3CCCC3)CC2)cc1
Second: O=C(O)c1cn(C2CC2)c2cc(N3CCNC(COc4ccccc4)C3)c(F)cc2c1=O (configuration not stated)
The melting point of the first is higher: 126 to 129 °C for the first, 112 to 115 °C for the second.

First: O=S(=O)(C(=CNc1cccc(NC=C(S(=O)(=O)c2ccccc2)S(=O)(=O)c2ccccc2)n1)S(=O)(=O)c1ccccc1)c1ccccc1
Second: CCCc1nc2c(C)cnc(C(=O)OC)c2n1Cc1ccc(-c2ccccc2-c2nnnn2C(c2ccccc2)(c2ccccc2)c2ccccc2)cc1
The melting point of the first is higher: 299 to 300 °C for the first, 239 to 242 °C for the second.

First: O=[N+]([O-])c1cc2nc(O)c(O)nc2c2scnc12
Second: CCc1cc([N+](=O)[O-])c(NC(CC)CC)c([N+](=O)[O-])c1C
The melting point of the first is higher: over 360 °C for the first, 51 to 53 °C for the second.

First: Cc1c(F)cc2c(=O)c(C(=O)O)cn(CCF)c2c1F
Second: CCn1cc(C(=O)O)c(=O)c2cc(F)c(N3Cc4ccccc4C3)cc21
The melting point of the first is lower: 215 to 217 °C for the first, over 300 °C for the second.

First: COC(=O)c1cc(S)cc(C(=O)OC)c1[N+](=O)[O-]
Second: COC(=O)c1ccc(Cl)c(-n2nn[nH]c2=O)c1Cl
The melting point of the first is lower: 117 to 119 °C for the first, 192 to 193 °C for the second.

Compared with Nc1c(OCC(F)(F)F)cc(O)c2c1C(=O)c1ccccc1C2=O, CSc1cc2c(cc1F)C(=O)c1cc3ccccc3cc1C2=O is lower in melting point: 266 to 268 °C for the first, 230 to 235 °C for the second.

First: CCCOc1ccc(CCC(=O)O)cc1-c1nc2c(C)cccc2c(=O)[nH]1
Second: COc1cc2c(cc1SCC(=O)O)oc1ccccc12
The melting point of the first is higher: 215 to 216 °C for the first, 180 to 182 °C for the second.

Compared with O=C(O)COc1ccc(-c2c3ccccc3cc3sc4ccccc4c23)cc1I, COc1ccc(-c2c(Cl)c(CCl)nc3sc4c(c23)CCN(C(=O)c2ccccc2)C4)cc1OC is lower in melting point: 248 to 249 °C for the first, 208 to 209 °C for the second.

First: O=c1[nH]c2cccnc2n1CCCO
Second: O=c1ccoc2cc(OCCn3ccnc3)ccc12
The melting point of the first is higher: 145 to 148 °C for the first, 131 to 133 °C for the second.

Compared with C#CC[C@@H](NC(=O)OC(C)(C)C)c1nc2cccnc2c(=O)n1Nc1ccccc1, O=C(Cc1ccccc1)N[C@H]1CN(OCc2ccccc2)C1=O is higher in melting point: 108 to 110 °C for the first, 130 to 131 °C for the second.

Compared with CC(Cl)(Cl)C(NC(=O)c1cc(Cl)cc(Cl)c1)NC(=NC#N)Nc1ccc(Cl)nc1 (configuration not stated), CC1(c2ccccc2)Cc2cc(O)c(Cl)c(Cl)c2C1=O (configuration not stated) is higher in melting point: 138 to 140 °C for the first, 194 to 196 °C for the second.

Compared with Cc1nnc(C)c(-c2c(F)cc(F)cc2F)c1-c1cccs1, CC(C)c1csc(/C=C/c2cccc(N)c2)n1 is lower in melting point: 100 to 102 °C for the first, 62 to 63 °C for the second.

First: COc1ccc2c(c1)C(C(=O)N(Cc1ccc(S(C)(=O)=O)cc1)c1ccc(C(C)C)cc1)CCC2 (configuration not stated)
Second: COc1ccc(Cn2cc3nc(Cl)nc(OCc4ccccc4)c3n2)cc1
The melting point of the first is lower: 131 to 132 °C for the first, 150 to 153 °C for the second.

First: CCS(=O)(=O)c1ccc(C(=O)C2C(=O)CCCC2=O)c(Cl)c1C1=NOC2OCCC12 (configuration not stated)
Second: CN(CC1Nc2cc(Cl)c(S(N)(=O)=O)cc2S(=O)(=O)N1)C(=O)CBr (configuration not stated)
The melting point of the first is lower: 99 °C for the first, 150 to 152 °C for the second.

First: CC(C)(Cc1ccc(Cl)cc1Cl)C(=O)Cn1cncn1
Second: Clc1ccc(-c2c[nH]cn2)cc1
The melting point of the first is lower: 85 °C for the first, 146 to 148 °C for the second.

Compared with NC1c2ccccc2CC2CCCCC21 (configuration not stated), O=C(O)CCC(=O)c1ccc(C2CCCCC2)cc1 is higher in melting point: 37 to 39 °C for the first, 140 to 141 °C for the second.

Compared with O=C1CCCCN1CCCOC1c2ccccc2C(=O)N1c1ccc2ccc(Cl)nc2n1 (configuration not stated), Clc1nc(Cl)nc(-c2cccn2Cc2ccccc2)n1 is higher in melting point: 140 °C for the first, 150 to 151 °C for the second.

First: COc1cc(NC(=O)N2CCOCN2)c(Cl)cc1Cl
Second: FC(F)(F)COC(c1ccc(Cl)c2nc3n(c12)CCCN3c1ccc(Cl)cc1Cl)C1CC1 (configuration not stated)
The melting point of the first is lower: 128 to 130 °C for the first, 143 to 145 °C for the second.

Compared with CN1CCC(O)(c2ccccc2[N+](=O)[O-])CC1, COC(=O)CC(=O)CC(O)/C=C/C1=C(c2ccc(F)cc2)C=C(c2ccc(F)cc2)CC12CCCC2 (configuration not stated) is lower in melting point: 166 to 167 °C for the first, 96 to 99 °C for the second.

Compared with O=C(c1ccn2c1CSC2c1cccnc1)c1c[nH]c2cc(-c3cccnc3)ccc12 (configuration not stated), O=c1oc2c(c(O)c1C(c1cc(NS(=O)(=O)c3cccc4cccnc34)cc(NS(=O)(=O)c3cccc4cccnc34)c1)C1CC1)CCCCCC2 (configuration not stated) is lower in melting point: 270 to 271 °C for the first, 139 to 145 °C for the second.

Work on CCOC(=O)C1CC2CCC(=O)N2C1=O (configuration not stated) yielded a melting point of 65 to 67 °C.
